The values below come from patent US11147875B2, “Compositions, combinations and related methods for photoimmunotherapy” (priority 2015, dated 2021).

The conditions of data set [1]: cited from earlier work.
The next data set relates to A431 cells. Put plainly: EGF-IRDye 700DX light-dependent killing. The class given is cell-based. The conditions noted are these: for light-dependent killing: 24 hours. On the procedure: Photo-activated EGF-IR700 cell killing was assessed in A431 cells. A431 cells were seeded at 5000 cells per well in 96 well white clear bottom dishes one day prior to the experiment. The following day, the A431 cells were washed three times with EMEM supplemented with 1% Penicillin/Streptomycin (serum free media). The A431 cells were then washed one time with serum free media, then incubated with serum free media containing 1 μg/mL of EGF-IRDye 700DX for one hour at 4° C. or serum free media only. […] The cells were then washed one time with serum free media.
To induce IR700-dependent killing, the cells were then illuminated with a 690 nm laser with 32 J/cm^2 of light or protected from light (“no light”). Cell death was evaluated as described in Example 6 using CellTox Green. The normalized percentage of dead cells was calculated by subtracting all wells by the percentage of dead cells from the no light serum free media only control, dividing by EGF-IRDye 700DX at 32 J/cm^2 minus the no light serum free media only control, and multiplied 100.
The effect of EGF-IRDye 700DX pre-exposure to white light versus green light on photo-activated cell killing was also evaluated in A431 cells. EGF-IRDye 700DX was pre-exposed to different types of light and the effect of light treatment on photo-activated killing activity was evaluated. Five microliters of EGF-IRDye 700DX conjugate (DAR 2) was added per clear HPLC vial at a EGF-IRDye 700DX concentration of 1.14 mg/mL. The following conditions were tested: (1) the antibody-IRDye 700DX conjugate stored at 4° C. protected from light (“4° C.”, used as the control); (2) antibody-IRDye 700DX conjugate placed in a clear glass HPLC tube under a Halogen lamp at 2500 lux for 24 hrs (“white light”); (3) antibody-IRDye 700DX conjugate placed in a clear glass HPLC tube wrapped in aluminum foil to protect from light exposure under Halogen lamp at 2500 lux for 24 hrs (“no light”), used as a control for thermal heating effects on the formation of aggregates); and (4) antibody-IRDye 700DX conjugate placed in a clear glass HPLC tube and exposed to green LED lamp at 2500 lux for 24 hrs (“green light”).
To assess cell killing activity, A431 cells were washed two times with serum free media, and incubated in serum free media alone for one hour at 4° C. The cells were then washed one time with serum free media and incubated with serum free media alone or serum free media containing 1 μg/mL of EGF-IRDye 700DX (“no light”), serum free media containing 1 μg/mL of EGF-IRDye 700DX pre-exposed to white light (“2500 Lux White light”), or serum free media containing 1 μg/mL EGF-IRDye 700DX pre-exposed to green light for one hour at 4° C. (“2500 Lux Green light”). The cells were then washed one time with serum free media.
To induce cell killing, the cells were either protected from light (light dose 0 J/cm^2) or were illuminated with a 690 nm laser with different light dosimetries (8 J/cm^2, 32 J/cm^2 or 64 J/cm^2).

Data set [2] has as its system BxPC3 pancreatic cancer cells. Put plainly: In vitro PIT with panitumumab conjugates. It is filed as cell-based. The note with it: 10 μg/mL; for killing: 8 J/cm^2 at 690 nm. The procedure:
The two conjugates were tested for efficiency in killing cells in an in vitro PIT assay using the pancreatic cancer line BxPC3. BxPC3 were seeded into 96-well white-wall plates (4,000 cells/well) the day before the experiment. Antibody conjugates were added to cells at a concentration of 10 μg/mL and were incubated for 2 hours at 37° C. Light of 690 nm was applied by a diode at a constant power output of 50 mW/cm^2. The illumination time was modulated to achieve the fluences 4 J/cm^2, 8 J/cm^2 or 16 J/cm^2. As a control, a group of cells was not irradiated with light (0 J/cm^2). To monitor the progression of cell death after light treatment, the conjugate containing medium was replaced by fresh medium containing CellTox Green (Promega), a dye that reports cell death based on compromised cell membrane integrity. Time dependent increase in cell death was observed over 24 hours.

The next data set deals with human iDCs. Put plainly: DC activation after priming with PIT-killed FaDu cells and Poly I:C treatment. It is filed as cell-based. The note with it: 1 μg/mL overnight, DCs primed with FaDu cells PIT-killed with Cetuximab IRDye 700DX, vs no light controls. The procedure:
FaDu cells grown in complete EMEM media were plated in 100 μL total volume per well in a 96 well tissue culture plate for adherence overnight. […] PIT cell killing was induced by illumination with a 690 nm laser light at a fluence of 12 J/cm^2. The controls represented wells corresponding to the groups not treated with light.
For co-culture, human iDCs (Astarte Biologics) from a healthy donor were directly added into the wells with PIT killed tumor cells and into control wells (non-PIT treated tumor cells). The co-cultures were then incubated for 48 hours at 37° C. in the CO2 incubator. The harvested DCs were then subjected to poly I:C treatment (1 μg/mL) for overnight. The cells were then detached using a non-enzymatic detachment solution.
The harvested cells from various treatment conditions were incubated with live/dead discrimination dye Zombie Green (BioLegend, 1:500) for 20 min at room temperature followed by washing with stain buffer. Cells were resuspended in stain buffer and human Fc blocking reagent (BD) was then added and cells were incubated for 20 min at room temperature. […]
Appropriate gating was performed while analyzing the data to exclude cell debris, and the data was analyzed with gating performed on live events. The results described below are based on median fluorescence intensity (MFI) data from each group which is plotted as fold increase over the no light controls.

The conditions of data set [3]: in vivo, 400 mg/m2; cited from earlier work.

Like-named read-outs stand apart in the source and are kept apart here.

With `Oc1cccc(-c2c3nc(c(-c4cccc(O)c4)c4ccc([nH]4)c(-c4cccc(O)c4)c4nc(c(-c5cccc(O)c5)c5ccc2[nH]5)CC4)C=C3)c1` [Foscan®, meta-tetrahydroxyphenylchlorin], in data set [1] (652 nm), the extinction coefficient is 22000 M⁻¹ cm⁻¹.

Consider `C=Cc1c(C)c2cc3nc(c(CC(=O)N[C@@H](CC(=O)[O-])C(=O)[O-])c4[nH]c(cc5nc(cc1[nH]2)C(C)=C5CC)c(C)c4C(=O)[O-])[C@@H](CCC(=O)[O-])[C@@H]3C.[Na+].[Na+].[Na+].[Na+]` [NPe6/Laserphyrin®, mono-L-aspartylchlorin e6], for which, in data set [1], the extinction coefficient was 40000 M⁻¹ cm⁻¹.

Take “EGF-IRDye 700DX: human recombinant epidermal growth factor (EGF) conjugated to IRDye 700DX (NSDSECPLSHDGYCLHDGVCMYIEALDKYACNCVVGYIGERCQYRDLKWWELR; Epidermal growth factor IRDye 700DX dye; UniProt P01133 971-1023, looked up)”: the cell killing entry in the data set with A431 cells (1 μg/mL, 32 J/cm^2 vs no light) is given as “light-dependent killing”; with A431 cells (cells pre-exposed to 100 μg/mL unconjugated cetuximab) it was “blocked light-dependent cell killing”. In addition, the light-dependent killing entry with A431 cells (conjugate pre-exposed to green light, 2500 lux) is recorded as “exhibited light-dependent killing activity comparable”; in the data set on A431 cells (conjugate pre-exposed to white light, 2500 lux), “no longer exhibited light-dependent killing activity”; in the data set with A431 cells (conjugate protected from light under halogen lamp) it was “exhibited light-dependent killing”.

With “Pan-IRDye 700DX-Alexa-488: panitumunab conjugated both to IRDye 700DX and Alexa Fluor 488”, the results for the cell killing entry in data set [2] (4 J/cm^2 at 690 nm) and in data set [2] (16 J/cm^2 at 690 nm) were “only marginally effective” and “near complete cell killing”, respectively. This compound also showed a killing in data set [2] of 73%.

“Pan-IRDye 700DX: anti-human EGFR antibody drug panitumumab conjugated only with IRDye 700DX”: the cell killing result in data set [2] (4 J/cm^2 at 690 nm) was “only marginally effective”; in data set [2] (16 J/cm^2 at 690 nm), “near complete cell killing”. The compound also showed a killing in data set [2] of 74%.

Turning to Photofrin®, in data set [1], the extinction coefficient was 1200 M⁻¹ cm⁻¹.

Turning to Poly I:C, the “CD80 and CD86 expression levels” value with human iDCs was “increased CD80 and CD86 expression levels”.

Consider “cetuximab: anti-EGFR antibody cetuximab (Erbitux), not conjugated”, for which the “AUC0-∞” value in data set [3] is listed as 24,740 μg/mL*h.
